Key:
PPARδ = biological target: T1, PPARδ (Homo sapiens, UniProt Q03181); experiment: PPARδ coactivator recruitment assay
T1 sequence (Q03181 211-439 limits assumed): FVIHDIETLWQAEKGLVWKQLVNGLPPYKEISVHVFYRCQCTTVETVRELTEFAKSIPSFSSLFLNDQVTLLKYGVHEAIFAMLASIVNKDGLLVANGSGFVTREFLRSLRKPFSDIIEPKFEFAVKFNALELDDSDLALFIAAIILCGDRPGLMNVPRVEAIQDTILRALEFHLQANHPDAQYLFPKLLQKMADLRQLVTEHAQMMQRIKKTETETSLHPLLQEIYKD
Method: Lanthascreen assay (Invitrogen) was used for nulear receptor selectivity assay. The kit uses a terbium-labeled anti-GST antibody, a fluorescein-labeled coactivator peptide, and a NR ligand-binding domain that is tagged with glutathione-S-transferase (GST) in a homogenous mix-and-read assay format. […] Following 1 hour incubation in the dark, TR-FRET measurements were made in the Envision. […] The data was analyzed using GraphPad Prism using the sigmoidal curve equation with variable slope to obtain EC50 values.

ileal explants = experiment: GLP-1 release ex vivo from ileal explants; design: species or system mouse; settings: 1 h exposure, explants from 18-weeks HF-fed TGR5-Tg male mice
Method: . Pellicciari et al., 2007, J. Med. Chem. 50, 4265-4268). cAMP production was performed as described (Sato et al., 2008, J. Med. Chem. 51, 1831; Watanabe et al., 2006, Nature 439, 484). […] ATP/ADP ratio and GLP-1 release were measured according to the manufacturers' instructions (Biovision and Millipore, respectively). Primary brown adipocytes were prepared as previously described (Watanabe et al., 2006, Nature 439, 484), and ileal explants were prepared according to an established method (Cima et al., 2004, J. Exp. Med. 200, 1635-1646).
Plasma parameters and hepatic and fecal lipid content were measured as described (Mataki et al., 2007, Mol. Cell. Biol. 27, 8330-8339). Hematoxylin and eosin (H&E), Sirius red, and oil red 0 staining were performed as described (Mark al., 2007, Curr. Protoc. Mol. Biol. Chapter 29, Unit 29B, 24), and micrographs were taken on wide-field microscopes (Leica) with a CCD camera. For pancreatic sections, islets were sized and counted from four HE-stained alternated sections spaced of […] using ImageJ software (five animals per group). […] Insulin was extracted after O/N incubation at −20° C. in acid ethanol and measured by ELISA on PBS-diluted samples according to the manufacturer's instructions (Mercodia). GLP-1 release was measured in vitro, ex vivo, and in vivo according to methods known in the art.

in vitro = settings: human, s9
[1] = Choleretic effect (bile flow) in bile fistula rat, id and iv infusion; type: in vivo; settings: for SV0: maximum bile secretion rate: 1 (μmol/min)/kg bw over 1 h
[2] = test system: Diet-Induced Obesity Mouse Model; experiment: Diet-induced obesity mouse model (Example 9); type: in vivo
TGR5+/+ and TGR5-/- mice [3] = experiment: OGTT in HF-fed TGR5+/+ and TGR5-/- mice before and after treatment; type: in vivo, mouse; settings: for body weight after treatment: HF diet, 30 mg/kg/d 4 weeks
Method: […]. […] […]; not statistically different). […]; not statistically different).
(§1) Animals were housed and bred according to standardized procedures (Argmann and Auwerx, 2006b). Age-matched male mice were used for all experiments. Genetically engineered mouse models (GEMMs), i.e., TGR5-Tg and TGR5^−/− mice, were generated as described in the Supplemental Data. […]; Research Diets) for at least 8 weeks, as mentioned in the text and figure legends. […] Mouse phenotyping experiments were performed according to EMPRESS protocols (see, for example, Empress (European Mouse Phenotyping Resource of Standardised Screening) website) and were aimed to assess food and water intake, body composition (Argmann et al., 2006a, Curr. Protoc. Mol. Biol. Chapter 29, Unit 29A, 23), energy expenditure (Argmann et al., 2006a, Curr. Protoc. Mol. Biol. Chapter 29, Unit 29A, 23), glucose and lipid homeostasis (Argmann et al., 2006b, Curr. Protoc. Mol. Biol. Chapter 29, Unit 29A, 22); Heikkinen et al., 2007, Curr. Protoc. Mol. Chapter. 29, Unit 29B, 23; Mataki et al., 2007, Mol. Cell. Biol. 27, 8330), and plasma biochemistry (Argmann and Auwerx, 2006a, Curr. Protoc. Mol. Biol. Chapter 29, Unit 29A, 22). Tissues and blood were collected and processed for histopathology, blood chemistry, and gene expression according to standardized procedures (Argmann and Auwerx, 2006a; Feige et al., 2008b; Mark et al., 2007; Watanabe et al., 2006). Hyperinsulinemic euglycemic clamp studies were performed as described (Feige et al., 2008b), with minor modifications including a change in the initial insulin bolus (30 mU/kg) and insulin infusion rate (10 mU/min/kg). Plasma GLP-1 levels were measured by ELISA (Millipore) on blood collected by retro-orbital puncture. […].

TGR5+/+ and TGR5-/- mice [4] = experiment: Plasma GLP-1 after oral glucose challenge in TGR5+/+ and TGR5-/- mice; type: in vivo, mouse; settings: for GLP-1 release after a glucose challenge: TGR5+/+ mice
Method: as §1
To further establish a role of TGR5 signaling in the maintenance of glucose homeostasis, we assessed the glucose tolerance of germline TGR5-deficient mice (TGR5^−/−), generated by breeding mice in which the TGR5 allele was floxed with CMV-Cre transgenic mice. […].

CC[C@H]1[C@@H](O)[C@@H]2[C@H](C[C@H](O)[C@]3(C)[C@@H]([C@H](C)C[C@H](C)C(=O)O)CC[C@@H]23)[C@@]2(C)CC[C@@H](O)C[C@@H]12 [Ih3e, 6α-ethyl-(23S)-methyl-3α,7α,12α trihydroxy-5β-cholan-24-oic acid]
PPARδ Activation EC50 (PPARδ): No activity
GLP-1 release ex vivo (ileal explants): dramatically and dose-dependently induces the release of GLP-1 ex vivo
half-life (in vitro): 12.1 h
duration of increased bile flow ([1]; duodenal infusion): at least 3 hours
maximum bile flow rate ([1]; duodenal infusion 1 μmol/kg/min, 1 hour): about 120 μL/min/kg
SV0: maximum bile secretion rate ([1]; id infusion): 112 ± 12 (μL/min)/kg bw
bile flow rate ([1]; iv (femoral) infusion): significantly increased the bile flow rate
SV0: maximum bile secretion rate ([1]; iv infusion): (131 ± 11) (μL/min)/kg bw
plasma insulin levels ([2]; after 10 weeks, chow fed and high fat fed mice vs vehicle): increased
glucose levels ([2]; after 12 weeks, high fat fed mice): lower
food/water intake ([2]; high fat diet vs vehicle): slight increase
glucose tolerance ([2]; high fat fed mice): improves glucose tolerance
percentage of change in body, organ and adipose tissue weight compared to chow diet ([2]; high fat fed mice): reduced percentage change
blood glucose ([2]; high fat fed mice vs vehicle): lower
heart rate ([2]; high fat fed mice vs vehicle): lower heart rate
liver enzymes (LDH, ASAT, ALAT) ([2]; high fat fed mice vs vehicle): lower
plasma lipids (total cholesterol, HDL-chol, LDL-chol, triglycerides) ([2]; high fat fed mice vs vehicle): lower
insulin levels after a test meal ([2]; high fat fed mice vs vehicle, at about 12 minutes): peaked to higher levels
body weight gain ([2]; high fat fed mice, 16 weeks, vs vehicle): less weight gain
insulin secretion during oral glucose challenge (TGR5+/+ and TGR5-/- mice [3]; TGR5+/+ fed a HF diet): normalization of insulin secretion
glucose tolerance (TGR5+/+ and TGR5-/- mice [3]; TGR5+/+ fed a HF diet, 4 weeks 30 mkd): significantly improved glucose tolerance
body weight after treatment (TGR5+/+ and TGR5-/- mice [3]; TGR5+/+ mice): 43.50 ± 3.47 g
effects on glucose tolerance and insulin secretion (TGR5+/+ and TGR5-/- mice [3]; TGR5-/- mice): blunted
body weight after treatment (TGR5+/+ and TGR5-/- mice [3]; TGR5-/- mice): 52.30 ± 2.72 g
GLP-1 release after a glucose challenge (TGR5+/+ and TGR5-/- mice [4]; DPP4 inhibitor sitagliptin coadministered): markedly more pronounced
GLP-1 release after a glucose challenge (TGR5+/+ and TGR5-/- mice [4]; preadministration 30 mg/kg oral): moderately increased GLP-1 release
effects on plasma GLP-1 levels (TGR5+/+ and TGR5-/- mice [4]; TGR5-/- mice): blunted
